Assay results: US11628164B2, “Composition containing salsolinol for treating liver cancer” (SUNGSHIN WOMEN'S UNIVERSITY R&DB FOUNDATION, priority 2020, dated 2023)

How the values were obtained:
[1] = test system: STAT3, pSTAT3, PCNA, 15-PGDH, p53 in SK-Hep1; assay: Western blotting of tumor-related genes in SK-Hep1; assay type: cell-based, human
Protocol: (§1) 5×10^5 cells of Human-derived liver cancer cell lines SK-Hep1 and SNU387 are cultured in a 60 mm culture vessel, the cells are lysed, and proteins are separated through electrophoresis. And after that, western blotting analysis is performed by using a specific antibody. After treatment of the SK-Hep1 and the SNU387 with the salsolinol at different times and concentrations, the cells are washed with PBS, and the cells are scraped off with a scraper. The cells are lysed in a lysis buffer for 1 hour, and after that, centrifuge separation is performed at 13,000 rpm for 15 minutes at 4° C., and only the supernatant is extracted. 20 μg of protein contained in the supernatant is electrophoresed on SDS-polyacrylamide gel, and after that, transferred to a PVDF membrane for 2 hours. The sample reacts with antibodies pSTAT3(#9145), STAT3(#9132), PCNA(#2586), 15-PGDH(cayman No. 160615), p53(sc-126), p53(sc-99), pAKT(#9271), AKT(#9272), Annexin A2(#8235), and GAPDH(sc-32233). The protein is detected by using an enhanced chemiluminascence (ECL) detection solution. As a result of the above-described experiment, it is confirmed that the activity of cells in the liver cancer cell lines SK-Hep1 is decreased by the salsolinol, and particularly, the specificity for the liver cancer cell lines is confirmed. In order to check the correlation between the decrease in the activity of cells of the liver cancer cell lines by the salsolinol and the gene expression, the SK-Hep1 which is a liver cancer cell line and the SNU387 which is a liver cancer cell line are cultured, and the samples are treated with 25 μM of salsolinol d for 72 hours. After the treatment, changes in the expression levels of tumor-related genes such as STAT3, pSTAT3, PCNA, 15-PGDH, and p53 are checked (refer to FIG. 4).

SK-Hep1 [2] = assay: Cell migration assay (culture-insert gap); assay type: cell-based, human; details: 25 μM salsolinol
Protocol: A culture-insert (Ibidi; Martinsried, Germany) is attached to a 24-well plate to make a 500 μm interval, and then the cultured liver cancer cell lines (SK-Hep1) are dispensed so as to have a concentration of 1.5×10^5 cells. And the culturing is performed for 24 hours. After detaching the insert from the plate, each well is treated with the salsolinol so as to have a concentration of 25 μM. After the culturing is performed for 24 hours and for 48 hours, and the sample is photographed by a microscope to check the ability of migrating cells. The SK-Hep1 cells are dispensed into the culture-insert so as to have a concentration of 1.5×10^5 cells, and the culturing is performed for 24 hours. After detaching the insert from the plate, each well is treated with the salsolinol so as to have a concentration of 25 μM. After the culturing is performed for 24 hours and 48 hours, and the sample is photographed by a microscope to check the cell migration ability (refer to FIG. 3). […] When the culturing is performed for 48 hours, a large number of SK-Hep1 cells are migrated, and it is confirmed that the scratch disappears.

[3] = test system: normal hepatocytes (NCTC1469); details: NCTC1469, from KR10-2019-0129765; cited from earlier work
SK-Hep1 [4] = assay: Colony formation experiment; assay type: cell-based, human
Protocol: Among the human-derived liver cancer cell lines, the SK-Hep1, which is a liver cancer cell lines, is dispensed into 96-wells so as to have a concentration of 1×10^4 cells, and then, the SK-Hep1 is treated once every two or three days so that the salsolinol has a concentration of 25 μM or 50 μM. The salsolinol-treated the SK-Hep1 is further cultured for 3 days under the above-mentioned conditions. After that, the SK-Hep1 is fixed with 4% formaldehyde, stained with crystal violet for 2 hours, and after extraction with an acetic acid, the absorbance (570 nm) is measured. After culturing the SK-Hep1 cells at 1×10^4 cells/well for 24 hours, the SK-Hep1 is treated three times at 48 hour intervals with the salsolinol so as to have a concentration of 25 μM or 50 μM, and then the degree of colony formation is checked (refer to FIG. 2). The colony formation experiment for the SK-Hep11 is repeated a total of 4 times, the statistic process is performed, and comparison and analysis are performed. As a result of the experiment, in the case of being treated with the salsolinol having a concentration of 25 μM, it is confirmed that the colony formation ability of the SK-Hep1 is decreased to a level of 50% compared with the SK-Hep1 not treated with the salsolinol. […]

[5] = test system: STAT3, pSTAT3, PCNA, 15-PGDH, p53 in SNU387; assay: Western blotting of tumor-related genes in SNU387; assay type: cell-based, human; details: SNU387, 25 μM salsolinol, 72 hours
Protocol: as §1

[6] = SK-Hep1, 25 μM salsolinol, 72 hours

In the case of `CC1NCCc2cc(O)c(O)cc21` (centres unmarked) [salsolinol, 6,7-dihydroxy-1-methyl-1,2,3,4-tetrahydroisoquinoline], the 15-PGDH expression level [1, 6] is reported as “increased”, the PCNA expression level [1, 6] is reported as “slightly decreased” and the STAT3 expression level [1, 6] is reported as “remains constant”. The p53 expression level [1, 6] was “increased”, the pSTAT3 expression level [1, 6] was “decreased” and the “phosphorylation of STAT3 over time” value ([1]; male-derived liver cancer cell lines, time course after treatment) was “rapidly increased initially, but it is rapidly decreased after 24 hours”. For the same compound, the cell migration ability (SK-Hep1 [2]; 24 hours) was “some cells are migrated, but the scratch portion is clearly distinguished”, the cell migration ability (SK-Hep1 [2]; 48 hours) was “scratch portion does not disappear” and the PARP-cleavage / apoptosis [3] was “PARP-cleavage is induced to induce apoptosis”. The “fibrosis-related genes and active oxygen species” value [3] was “increases fibrosis-related genes and active oxygen species”, the “colony formation ability compared with untreated SK-Hep1” value (SK-Hep1 [4]; 25 μM salsolinol) was 50% and the “colony formation ability compared with untreated SK-Hep1” value (SK-Hep1 [4]; 50 μM salsolinol) was 20%. The 15-PGDH expression level [5] was “remains constant”, the PCNA expression level [5] was “rather increased” and the STAT3 expression level [5] was “remains constant”. The p53 expression level [5] was “not changed” and the pSTAT3 expression level [5] was “not decreased”.
